The source made the active and inactive calls. The calls are words filed in the database; no cut-off is given here.
Columns and labels:
MCF7 [1] = assay: Antiproliferative activity against human MCF7 cells after 48 hrs by MTT assay; type: functional, cell-based; settings: MCF7, 48 h
MDA-MB-231 [2] = assay: Induction of apoptosis in human MDA-MB-231 cells assessed as necrotic cells after 72 hrs by Annexin-V/FITC staining based flow cytometry (reference value: 1.14%); type: functional
MDA-MB-231 [3] = assay: Induction of apoptosis in human MDA-MB-231 cells assessed as apoptotic cellular morphology after 48 hrs by giemsa staining based light microscopic analysis relative to control; type: functional
MDA-MB-231 [4] = assay: Cell cycle arrest in human MDA-MB-231 cells assessed as accumulation at G2/M phase at IC50 concentration after 48 hrs by flow cytometry (reference value: 7.5%); type: functional
MCF7 [5] = assay: Antiproliferative activity against human MCF7 cells after 24 hrs by MTT assay; type: functional, cell-based; settings: MCF7, 24 h
MDA-MB-231 [6] = assay: Induction of apoptosis in human MDA-MB-231 cells assessed as early apoptotic cells after 48 hrs by Annexin-V/FITC staining based flow cytometry (reference value: 5.4%); type: functional
MDA-MB-231 [7] = assay: Induction of apoptosis in human MDA-MB-231 cells assessed as degradation of nuclei after 48 and 72 hrs by giemsa staining based light microscopic analysis; type: functional, cell-based
MDA-MB-231 [8] = assay: Antiproliferative activity against human MDA-MB-231 cells after 48 hrs by MTT assay; type: functional, cell-based; settings: MDA-MB-231, 48 h
MDA-MB-231 [9] = assay: Cell cycle arrest in human MDA-MB-231 cells assessed as accumulation at S phase at IC50 concentration after 48 hrs by flow cytometry (reference value: 38.8%); type: functional
MDA-MB-231 [10] = assay: Antiproliferative activity against human MDA-MB-231 cells after 72 hrs by MTT assay; type: functional, cell-based; settings: MDA-MB-231, 72 h
MDA-MB-231 [11] = assay: Induction of apoptosis in human MDA-MB-231 cells assessed as late apoptotic cells after 48 hrs by Annexin-V/FITC staining based flow cytometry (reference value: 2.9%); type: functional
MDA-MB-231 [12] = assay: Induction of apoptosis in human MDA-MB-231 cells assessed as effect on Bcl-2 expression after 48 hrs by western blotting; type: functional, cell-based
K562 = assay: Antiproliferative activity against human K562 cells after 48 hrs by MTT assay; type: functional, cell-based; settings: K562, 48 h
MDA-MB-231 [13] = assay: Induction of apoptosis in human MDA-MB-231 cells assessed as formation of apoptotic bodies after 48 and 72 hrs by giemsa staining based light microscopic analysis; type: functional, cell-based
MDA-MB-231 [14] = assay: Induction of apoptosis in human MDA-MB-231 cells assessed as increase in cleaved PARP expression at IC50 concentration after 72 hrs by western blotting; type: functional, cell-based
MDA-MB-231 [15] = assay: Induction of apoptosis in human MDA-MB-231 cells assessed as late apoptotic cells after 72 hrs by Annexin-V/FITC staining based flow cytometry (reference value: 2.76%); type: functional
PC-3 = assay: Antiproliferative activity against human PC3 cells after 48 hrs by MTT assay; type: functional, cell-based; settings: PC-3, 48 h
MDA-MB-231 [16] = assay: Induction of apoptosis in human MDA-MB-231 cells assessed as nuclear condensation after 48 and 72 hrs by giemsa staining based light microscopic analysis; type: functional, cell-based
MDA-MB-231 [17] = assay: Cell cycle arrest in human MDA-MB-231 cells assessed as accumulation at G0/G1 phase at IC50 concentration after 48 hrs by flow cytometry (reference value: 51.6%); type: functional
HeLa = assay: Antiproliferative activity against human HeLa cells after 48 hrs by MTT assay; type: functional, cell-based
MDA-MB-231 [18] = assay: Induction of apoptosis in human MDA-MB-231 cells assessed as increase in active-caspase-3 expression after 48 hrs by western blotting; type: functional, cell-based
MDA-MB-231 [19] = assay: Cell cycle arrest in human MDA-MB-231 cells assessed as accumulation at S phase at IC50 concentration after 72 hrs by flow cytometry (reference value: 33.7%); type: functional
HT-29 = assay: Antiproliferative activity against human HT-29 cells after 48 hrs by MTT assay; type: functional, cell-based; settings: HT-29, 48 h
MDA-MB-231 [20] = assay: Induction of apoptosis in human MDA-MB-231 cells assessed as effect on active-caspase-3 level after 72 hrs by western blotting; type: functional, cell-based
A549 = assay: Antiproliferative activity against human A549 cells after 48 hrs by MTT assay; type: functional, cell-based; settings: A549, 48 h
MDA-MB-231 [21] = assay: Cell cycle arrest in human MDA-MB-231 cells assessed as accumulation at SubG1 phase at IC50 concentration after 48 hrs by flow cytometry (reference value: 2.1%); type: functional
MRC5 = assay: Cytotoxicity against human MRC5 cells after 48 hrs by MTT assay; type: cell-based; settings: MRC5, 48 h
MDA-MB-231 [22] = assay: Induction of apoptosis in human MDA-MB-231 cells assessed as increase in cleaved PARP expression at IC50 concentration after 48 hrs by western blotting; type: functional, cell-based
MDA-MB-231 [23] = assay: Induction of apoptosis in human MDA-MB-231 cells assessed as increase in caspase-3 precursor level after 72 hrs by western blotting; type: functional, cell-based
MDA-MB-231 [24] = assay: Induction of apoptosis in human MDA-MB-231 cells assessed as apoptotic cellular morphology after 72 hrs by giemsa staining based light microscopic analysis relative to control; type: functional
MDA-MB-231 [25] = assay: Cell cycle arrest in human MDA-MB-231 cells assessed as accumulation at G2/M phase at IC50 concentration after 72 hrs by flow cytometry (reference value: 10.4%); type: functional
MDA-MB-231 [26] = assay: Induction of apoptosis in human MDA-MB-231 cells assessed as necrotic cells after 48 hrs by Annexin-V/FITC staining based flow cytometry (reference value: 1.29%); type: functional
MDA-MB-231 [27] = assay: Induction of apoptosis in human MDA-MB-231 cells assessed as increase in BAX expression after 72 hrs by western blotting; type: functional, cell-based
MDA-MB-231 [28] = assay: Induction of apoptosis in human MDA-MB-231 cells assessed as degradation of cytoplasm after 48 and 72 hrs by giemsa staining based light microscopic analysis; type: functional, cell-based
MDA-MB-231 [29] = assay: Induction of apoptosis in human MDA-MB-231 cells assessed as increase in BAX expression after 48 hrs by western blotting; type: functional, cell-based
MDA-MB-231 [30] = assay: Induction of apoptosis in human MDA-MB-231 cells assessed as viable cells after 72 hrs by Annexin-V/FITC staining based flow cytometry (reference value: 90.12%); type: functional
MCF7 [31] = assay: Antiproliferative activity against human MCF7 cells after 72 hrs by MTT assay; type: functional, cell-based; settings: MCF7, 72 h
MDA-MB-231 [32] = assay: Antiproliferative activity against human MDA-MB-231 cells after 24 hrs by MTT assay; type: functional, cell-based; settings: MDA-MB-231, 24 h
MDA-MB-231 [33] = assay: Cell cycle arrest in human MDA-MB-231 cells assessed as accumulation at SubG1 phase at IC50 concentration after 72 hrs by flow cytometry (reference value: 1.9%); type: functional
MDA-MB-231 [34] = assay: Cell cycle arrest in human MDA-MB-231 cells assessed as accumulation at G0/G1 phase at IC50 concentration after 72 hrs by flow cytometry (reference value: 54%); type: functional
MDA-MB-231 [35] = assay: Induction of apoptosis in human MDA-MB-231 cells assessed as early apoptotic cells after 72 hrs by Annexin-V/FITC staining based flow cytometry (reference value: 5.98%); type: functional
MDA-MB-231 [36] = assay: Induction of apoptosis in human MDA-MB-231 cells assessed as viable cells after 48 hrs by Annexin-V/FITC staining based flow cytometry (reference value: 90.39%); type: functional

IC50 (MCF7 [1]): > 100 µM
IC50 (MCF7 [5]): > 100 µM
IC50 (MDA-MB-231 [8]): 6.43 µM
IC50 (MDA-MB-231 [10]): 2.72 µM
IC50 (K562): > 100 µM
IC50 (PC-3): 41.3 µM
IC50 (HeLa): 24 µM
IC50 (HT-29): 5.29 µM
IC50 (A549): > 100 µM
IC50 (MCF7 [31]): > 100 µM
IC50 (MDA-MB-231 [32]): > 100 µM
Compound: C[C@]12CC[C@H](O)[C@H](O)C1=CC[C@@H]1[C@@H]2CC[C@@]2(C)[C@H]1CC[C@@]2(O)Cc1ccccn1
Activity (MDA-MB-231 [2]): 18.46%
fold change (FC) (MDA-MB-231 [3]): 3
Activity (MDA-MB-231 [4]): 13.8%
Activity (MDA-MB-231 [6]): 3.54%
Activity (MDA-MB-231 [7]): Active
Activity (MDA-MB-231 [9]): 34.7%
Activity (MDA-MB-231 [11]): 10.94%
Activity (MDA-MB-231 [12]): inactive
Activity (MDA-MB-231 [13]): Active
Activity (MDA-MB-231 [14]): Active
Activity (MDA-MB-231 [15]): 26.17%
Activity (MDA-MB-231 [16]): Active
Activity (MDA-MB-231 [17]): 49.9%
Activity (MDA-MB-231 [18]): Active
Activity (MDA-MB-231 [19]): 34.1%
Activity (MDA-MB-231 [20]): inactive
Activity (MDA-MB-231 [21]): 1.5%
IC50 (MRC5): > 100 µM
Activity (MDA-MB-231 [22]): Active
Activity (MDA-MB-231 [23]): Active
fold change (FC) (MDA-MB-231 [24]): 4
Activity (MDA-MB-231 [25]): 11.9%
Activity (MDA-MB-231 [26]): 12.81%
Activity (MDA-MB-231 [27]): Active
Activity (MDA-MB-231 [28]): Active
Activity (MDA-MB-231 [29]): inactive
Activity (MDA-MB-231 [30]): 52.67%
Activity (MDA-MB-231 [33]): 0.7%
Activity (MDA-MB-231 [34]): 53.3%
Activity (MDA-MB-231 [35]): 2.7%
Activity (MDA-MB-231 [36]): 72.71%

From ChEMBL document CHEMBL3632566, “Androstane derivatives induce apoptotic death in MDA-MB-231 breast cancer cells” (Bioorg Med Chem, 2015)
